From ChEMBL document CHEMBL1201861, “Genomics of Drug Sensitity in Cancer screening data, Wellcome Trust Sanger Institute”

Assays:
Test in all cases: cells
CAPAN-1 = type: functional, cell-based, Homo sapiens; settings: Homo sapiens, CAPAN-1;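 also: growth suppression of CAPAN-1 cells, read out by a cell viability assay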
Description: SANGER: Inhibition of human CAPAN-1 cell growth in a cell viability assay.

BHY = type: functional, cell-based, Homo sapiens; settings: Homo sapiens, BHY;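 also: cell growth inhibition read out by a viability assay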
Description: SANGER: Inhibition of human BHY cell growth in a cell viability assay.

NCI-H358 = type: functional, cell-based, Homo sapiens; settings: Homo sapiens, NCI-H358;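 also: growth inhibition of NCI-H358 human cells, read out with a cell viability assay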
Description: SANGER: Inhibition of human NCI-H358 cell growth in a cell viability assay.

HuP-T4 = type: functional, cell-based, Homo sapiens; settings: Homo sapiens, HuP-T4;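 also: cell viability assay measuring how much HuP-T4 cell growth is inhibited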
Description: SANGER: Inhibition of human HuP-T4 cell growth in a cell viability assay.

UACC-257 = type: functional, cell-based, Homo sapiens; settings: Homo sapiens, UACC-257
Description: SANGER: Inhibition of human UACC-257 cell growth in a cell viability assay.

NCI-H1355 = type: functional, cell-based, Homo sapiens; settings: Homo sapiens, NCI-H1355;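 also: growth inhibition of human NCI-H1355 cells, read out by a cell viability assay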
Description: SANGER: Inhibition of human NCI-H1355 cell growth in a cell viability assay.

NCI-H23 = type: functional, cell-based, Homo sapiens; settings: Homo sapiens, NCI-H23;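 also: cell viability assay measuring growth inhibition of NCI-H23 cells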
Description: SANGER: Inhibition of human NCI-H23 cell growth in a cell viability assay.

NCI-H209 = type: functional, cell-based; settings: Homo sapiens;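 also: growth inhibition of human NCI-H209 cells, measured by a cell viability assay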
Description: SANGER: Inhibition of human NCI-H209 cell growth in a cell viability assay.

IST-MEL1 = type: functional, cell-based, Homo sapiens; settings: Homo sapiens, IST-MEL1;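 also: growth inhibition of the cell line, read out with a cell viability assay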
Description: SANGER: Inhibition of human IST-MEL1 cell growth in a cell viability assay.

RPMI-8866 = type: functional, cell-based; settings: Homo sapiens
Description: SANGER: Inhibition of human RPMI-8866 cell growth in a cell viability assay.

IST-MES1 = type: functional, cell-based, Homo sapiens; settings: Homo sapiens, IST-MES1;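 also: growth inhibition of IST-MES1 cells, measured with a cell viability assay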
Description: SANGER: Inhibition of human IST-MES1 cell growth in a cell viability assay.

HuP-T3 = type: functional, cell-based, Homo sapiens; settings: Homo sapiens, HuP-T3;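 also: HuP-T3 cell growth inhibition, read out with a cell viability assay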
Description: SANGER: Inhibition of human HuP-T3 cell growth in a cell viability assay.

COLO-668 = type: functional, cell-based, Homo sapiens; settings: Homo sapiens, COLO-668
Description: SANGER: Inhibition of human COLO-668 cell growth in a cell viability assay.

MFM-223 = type: functional, cell-based, Homo sapiens; settings: Homo sapiens, MFM-223
Description: SANGER: Inhibition of human MFM-223 cell growth in a cell viability assay.

A 172 = type: functional, cell-based, Homo sapiens; settings: Homo sapiens, A 172;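 also: growth inhibition of A172 cells, measured with a cell viability readout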
Description: SANGER: Inhibition of human A172 cell growth in a cell viability assay.

EW-18 = type: functional, cell-based; settings: Homo sapiens;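 also: growth inhibition of EW-18 cells, read out by a cell viability assay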
Description: SANGER: Inhibition of human EW-18 cell growth in a cell viability assay.

KYSE-180 = type: functional, cell-based, Homo sapiens; settings: Homo sapiens, KYSE-180;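 also: growth inhibition of KYSE-180 cells, read out with a cell viability assay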
Description: SANGER: Inhibition of human KYSE-180 cell growth in a cell viability assay.

ABC-1 = type: functional, cell-based, Homo sapiens; settings: Homo sapiens, ABC-1;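 also: growth inhibition of human ABC-1 cells, read out by a cell viability assay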
Description: SANGER: Inhibition of human ABC-1 cell growth in a cell viability assay.

CCRF-CEM = type: functional, cell-based; settings: Homo sapiens;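 also: inhibition of CCRF-CEM cell growth, measured by a cell viability assay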
Description: SANGER: Inhibition of human CCRF-CEM cell growth in a cell viability assay.

M059J = type: functional, cell-based, Homo sapiens; settings: Homo sapiens, M059J;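 also: growth inhibition of M059J cells, read out with a cell viability assay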
Description: SANGER: Inhibition of human M059J cell growth in a cell viability assay.

SK-N-FI = type: functional, cell-based, Homo sapiens; settings: Homo sapiens, SK-N-FI;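 also: cell viability assay measuring growth inhibition of human SK-N-FI cells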
Description: SANGER: Inhibition of human SK-N-FI cell growth in a cell viability assay.

U-118-MG = type: functional, cell-based, Homo sapiens; settings: Homo sapiens, U-118-MG
Description: SANGER: Inhibition of human U-118-MG cell growth in a cell viability assay.

U2OS = type: functional, cell-based, Homo sapiens, U-2-OS; settings: Homo sapiens, U2OS;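 also: growth inhibition of human U-2-OS cells, determined with a cell viability assay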
Description: SANGER: Inhibition of human U-2-OS cell growth in a cell viability assay.

SW1463 = type: functional, cell-based, Homo sapiens; settings: Homo sapiens, SW1463;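 also: growth inhibition of SW1463 cells, determined with a cell viability assay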
Description: SANGER: Inhibition of human SW1463 cell growth in a cell viability assay.

QIMR-WIL = type: functional, cell-based; settings: Homo sapiens;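 also: growth inhibition of QIMR-WIL cells, read out with a cell viability assay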
Description: SANGER: Inhibition of human QIMR-WIL cell growth in a cell viability assay.

NB6 = type: functional, cell-based, Homo sapiens; settings: Homo sapiens, NB6
Description: SANGER: Inhibition of human NB6 cell growth in a cell viability assay.

SCC-25 = type: functional, cell-based, Homo sapiens; settings: Homo sapiens, SCC-25;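 also: growth inhibition of SCC-25 cells, measured with a cell viability assay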
Description: SANGER: Inhibition of human SCC-25 cell growth in a cell viability assay.

MLMA = type: functional, cell-based, Homo sapiens; settings: Homo sapiens, MLMA;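 also: growth inhibition of MLMA cells (human), determined through a cell viability readout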
Description: SANGER: Inhibition of human MLMA cell growth in a cell viability assay.

GMS-10 = type: functional, cell-based, Homo sapiens; settings: Homo sapiens, GMS-10;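 also: growth inhibition of GMS-10 cells, read out as cell viability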
Description: SANGER: Inhibition of human GMS-10 cell growth in a cell viability assay.

COR-L105 = type: functional, cell-based, Homo sapiens; settings: Homo sapiens, COR-L105;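 also: cell growth inhibition determined with a viability assay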
Description: SANGER: Inhibition of human COR-L105 cell growth in a cell viability assay.

SK-MEL3 = type: functional, cell-based, Homo sapiens, SK-MEL-3; settings: Homo sapiens, SK-MEL3;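 also: growth inhibition of human SK-MEL-3 cells, read out with a cell viability assay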
Description: SANGER: Inhibition of human SK-MEL-3 cell growth in a cell viability assay.

NCI-H1304 = type: functional, cell-based; settings: Homo sapiens;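 also: growth inhibition of the cancer cell line, measured in a cell viability assay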
Description: SANGER: Inhibition of human NCI-H1304 cell growth in a cell viability assay.

MCF7 = type: functional, cell-based, Homo sapiens; settings: Homo sapiens, MCF7;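 also: growth inhibition of human MCF7 cells, read out with a cell viability assay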
Description: SANGER: Inhibition of human MCF7 cell growth in a cell viability assay.

COR-L88 = type: functional, cell-based; settings: Homo sapiens;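 also: growth inhibition of COR-L88 cells, read out with a cell viability assay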
Description: SANGER: Inhibition of human COR-L88 cell growth in a cell viability assay.

EW-1 = type: functional, cell-based, Homo sapiens; settings: Homo sapiens, EW-1
Description: SANGER: Inhibition of human EW-1 cell growth in a cell viability assay.

HDLM-2 = type: functional, cell-based; settings: Homo sapiens;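 also: cell viability assay measuring suppression of HDLM-2 proliferation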
Description: SANGER: Inhibition of human HDLM-2 cell growth in a cell viability assay.

TE-10 = type: functional, cell-based, Homo sapiens; settings: Homo sapiens, TE-10;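 also: growth inhibition of TE-10 cells, measured by a cell viability assay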
Description: SANGER: Inhibition of human TE-10 cell growth in a cell viability assay.

COR-L23 = type: functional, cell-based, Homo sapiens; settings: Homo sapiens, COR-L23;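 also: cell viability assay measuring how strongly compounds suppress growth of COR-L23 cells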
Description: SANGER: Inhibition of human COR-L23 cell growth in a cell viability assay.

EFO-27 = type: functional, cell-based, Homo sapiens; settings: Homo sapiens, EFO-27;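 also: growth inhibition of EFO-27 cells, read out with a cell viability assay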
Description: SANGER: Inhibition of human EFO-27 cell growth in a cell viability assay.

BFTC-905 = type: functional, cell-based, Homo sapiens; settings: Homo sapiens, BFTC-905
Description: SANGER: Inhibition of human BFTC-905 cell growth in a cell viability assay.

LNCaP-Clone-FGC = type: functional, cell-based, Homo sapiens; settings: Homo sapiens, LNCaP-Clone-FGC
Description: SANGER: Inhibition of human LNCaP-Clone-FGC cell growth in a cell viability assay.

NB17 = type: functional, cell-based; settings: Homo sapiens;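 also: growth inhibition of NB17 cells, read out with a cell viability assay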
Description: SANGER: Inhibition of human NB17 cell growth in a cell viability assay.

OVCAR-8 = type: functional, cell-based, Homo sapiens; settings: Homo sapiens, OVCAR-8;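 also: growth inhibition of human OVCAR-8 cells, read out by a cell viability assay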
Description: SANGER: Inhibition of human OVCAR-8 cell growth in a cell viability assay.

SNU-387 = type: functional, cell-based, Homo sapiens; settings: Homo sapiens, SNU-387
Description: SANGER: Inhibition of human SNU-387 cell growth in a cell viability assay.

NCI-H1651 = type: functional, cell-based, Homo sapiens; settings: Homo sapiens, NCI-H1651;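 also: Read-out is a cell viability assay, with IC50 expressing inhibition of NCI-H1651 cell growth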
Description: SANGER: Inhibition of human NCI-H1651 cell growth in a cell viability assay.

NB69 = type: functional, cell-based, Homo sapiens; settings: Homo sapiens, NB69;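 also: growth inhibition of NB69 cells, determined by a cell viability assay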
Description: SANGER: Inhibition of human NB69 cell growth in a cell viability assay.

CAL-27 = type: functional, cell-based, Homo sapiens; settings: Homo sapiens, CAL-27;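 also: Viability-based readout, IC50 reflecting inhibition of CAL-27 cell growth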
Description: SANGER: Inhibition of human CAL-27 cell growth in a cell viability assay.

EW-24 = type: functional, cell-based; settings: Homo sapiens;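 also: human EW-24 cancer cell line, growth inhibition read out via a cell viability assay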
Description: SANGER: Inhibition of human EW-24 cell growth in a cell viability assay.

GAMG = type: functional, cell-based, Homo sapiens; settings: Homo sapiens, GAMG;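 also: cell growth inhibition measured by a viability assay in the GAMG human cell line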
Description: SANGER: Inhibition of human GAMG cell growth in a cell viability assay.

SW1417 = type: functional, cell-based, Homo sapiens; settings: Homo sapiens, SW1417;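 also: growth inhibition of human SW1417 cells, read out with a cell viability assay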
Description: SANGER: Inhibition of human SW1417 cell growth in a cell viability assay.

TE-5 = type: functional, cell-based, Homo sapiens; settings: Homo sapiens, TE-5;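 also: inhibition of cell growth, read out by a cell viability assay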
Description: SANGER: Inhibition of human TE-5 cell growth in a cell viability assay.

Which IC50 (CAPAN-1) does the source give for `Nc1ccn([C@@H]2O[C@H](CO)[C@@H](O)[C@@H]2O)c(=O)n1` [CYTARABINE] here?
The IC50 was greater than 2 µM.

What about the IC50 (BHY) of the same molecule?
The IC50 was 0.898 µM.

And the IC50 (NCI-H358)?
The IC50 was greater than 2 µM.

What about the IC50 (HuP-T4) of the same molecule?
Its IC50 is 0.237 µM.

And the IC50 (UACC-257)?
Its IC50 is greater than 2 µM.

And the IC50 (NCI-H1355)?
Its IC50 is 0.556 µM.

What about the IC50 (NCI-H23) of the same molecule?
Its IC50 is 1.2 µM.

And the IC50 (NCI-H209)?
Its IC50 is greater than 2 µM.

What about the IC50 (IST-MEL1) of the same molecule?
Its IC50 is 0.381 µM.

And the IC50 (RPMI-8866)?
Its IC50 is 0.74 µM.

What about the IC50 (IST-MES1) of the same molecule?
Its IC50 is greater than 2 µM.

And the IC50 (HuP-T3)?
The IC50 was 0.856 µM.

And the IC50 (COLO-668)?
Its IC50 is 0.809 µM.

What about the IC50 (MFM-223) of the same molecule?
The IC50 was greater than 2 µM.

And the IC50 (A 172)?
Its IC50 is greater than 2 µM.

And the IC50 (EW-18)?
Its IC50 is greater than 2 µM.

And the IC50 (KYSE-180)?
Its IC50 is 0.565 µM.

What about the IC50 (ABC-1) of the same molecule?
The IC50 was 1.52 µM.

What about the IC50 (CCRF-CEM) of the same molecule?
Its IC50 is greater than 2 µM.

And the IC50 (M059J)?
Its IC50 is 1.82 µM.

And the IC50 (SK-N-FI)?
The IC50 was greater than 2 µM.

And the IC50 (U-118-MG)?
The IC50 was greater than 2 µM.

And the IC50 (U2OS)?
Its IC50 is 0.344 µM.

And the IC50 (SW1463)?
Its IC50 is greater than 2 µM.

And the IC50 (QIMR-WIL)?
Its IC50 is greater than 2 µM.

What about the IC50 (NB6) of the same molecule?
The IC50 was greater than 2 µM.

What about the IC50 (SCC-25) of the same molecule?
Its IC50 is greater than 2 µM.

And the IC50 (MLMA)?
Its IC50 is 0.0555 µM.

And the IC50 (GMS-10)?
The IC50 was 0.396 µM.

And the IC50 (COR-L105)?
The IC50 was 0.16 µM.

What about the IC50 (SK-MEL3) of the same molecule?
The IC50 was greater than 2 µM.

What about the IC50 (NCI-H1304) of the same molecule?
The IC50 was greater than 2 µM.

And the IC50 (MCF7)?
Its IC50 is greater than 2 µM.

What about the IC50 (COR-L88) of the same molecule?
Its IC50 is greater than 2 µM.

What about the IC50 (EW-1) of the same molecule?
The IC50 was 0.139 µM.

And the IC50 (HDLM-2)?
Its IC50 is greater than 2 µM.

What about the IC50 (TE-10) of the same molecule?
Its IC50 is greater than 2 µM.

What about the IC50 (COR-L23) of the same molecule?
Its IC50 is 0.797 µM.

What about the IC50 (EFO-27) of the same molecule?
The IC50 was 1.94 µM.

And the IC50 (BFTC-905)?
The IC50 was 0.108 µM.

And the IC50 (LNCaP-Clone-FGC)?
The IC50 was 1.31 µM.

What about the IC50 (NB17) of the same molecule?
The IC50 was greater than 2 µM.

What about the IC50 (OVCAR-8) of the same molecule?
Its IC50 is 0.211 µM.

What about the IC50 (SNU-387) of the same molecule?
The IC50 was 0.289 µM.

And the IC50 (NCI-H1651)?
Its IC50 is greater than 2 µM.

What about the IC50 (NB69) of the same molecule?
The IC50 was 0.0795 µM.

And the IC50 (CAL-27)?
The IC50 was 1.93 µM.

What about the IC50 (EW-24) of the same molecule?
Its IC50 is 0.794 µM.

What about the IC50 (GAMG) of the same molecule?
Its IC50 is 0.394 µM.

What about the IC50 (SW1417) of the same molecule?
The IC50 was greater than 2 µM.

What about the IC50 (TE-5) of the same molecule?
The IC50 was 0.381 µM.

What does the source list for `CC(=O)O[C@@]12CO[C@@H]1C[C@H](O)[C@@]1(C)C(=O)[C@H](O)C3=C(C)[C@@H](OC(=O)[C@H](O)[C@@H](NC(=O)OC(C)(C)C)c4ccccc4)C[C@@](O)([C@@H](OC(=O)c4ccccc4)[C@H]21)C3(C)C` [DOCETAXEL]?
IC50 (CAPAN-1): > 0.01 µM; IC50 (BHY): 0.00216 µM; IC50 (NCI-H358): 0.00758 µM; IC50 (HuP-T4): 0.00679 µM; IC50 (UACC-257): > 0.01 µM; IC50 (NCI-H1355): 0.00679 µM; IC50 (NCI-H23): 0.00364 µM; IC50 (NCI-H209): 0.00286 µM; IC50 (IST-MEL1): 0.00225 µM; IC50 (RPMI-8866): 0.00281 µM; IC50 (IST-MES1): 0.0084 µM; IC50 (HuP-T3): > 0.01 µM; IC50 (COLO-668): > 0.01 µM; IC50 (MFM-223): 0.00616 µM; IC50 (A 172): 0.00163 µM; IC50 (EW-18): > 0.01 µM; IC50 (KYSE-180): 0.00135 µM; IC50 (ABC-1): > 0.01 µM; IC50 (CCRF-CEM): > 0.01 µM; IC50 (M059J): 0.00198 µM; IC50 (SK-N-FI): > 0.01 µM; IC50 (U-118-MG): > 0.01 µM; IC50 (U2OS): 0.00175 µM; IC50 (SW1463): > 0.01 µM; IC50 (QIMR-WIL): 0.00438 µM; IC50 (NB6): > 0.01 µM; IC50 (SCC-25): 0.00068 µM; IC50 (MLMA): 0.00355 µM; IC50 (GMS-10): 0.000941 µM; IC50 (COR-L105): > 0.01 µM; IC50 (SK-MEL3): > 0.01 µM; IC50 (NCI-H1304): > 0.01 µM; IC50 (MCF7): 0.00161 µM; IC50 (COR-L88): > 0.01 µM; IC50 (EW-1): 0.00298 µM; IC50 (HDLM-2): > 0.01 µM; IC50 (TE-10): 0.00254 µM; IC50 (COR-L23): 0.0022 µM; IC50 (EFO-27): 0.00102 µM; IC50 (BFTC-905): 0.000268 µM; IC50 (LNCaP-Clone-FGC): 0.0011 µM; IC50 (NB17): 0.00189 µM; IC50 (OVCAR-8): 0.00212 µM; IC50 (SNU-387): 0.00261 µM; IC50 (NCI-H1651): 0.0054 µM; IC50 (NB69): 0.00629 µM; IC50 (CAL-27): 0.000339 µM; IC50 (EW-24): 0.00433 µM; IC50 (GAMG): 0.000416 µM; IC50 (SW1417): 0.00276 µM; IC50 (TE-5): 0.00106 µM
